Data: ChEMBL document CHEMBL3991601, “The target landscape of clinical kinase drugs” (Science, 2017)
Activity calls are given as the source filed them.

Key:
[1] = biological target: Protein kinase C alpha type (Homo sapiens, UniProt P17252)
[2] = biological target: T1, Mitogen-activated protein kinase kinase kinase 2 (Homo sapiens, UniProt Q9Y2U5)
T1 sequence (Q9Y2U5 whole entry): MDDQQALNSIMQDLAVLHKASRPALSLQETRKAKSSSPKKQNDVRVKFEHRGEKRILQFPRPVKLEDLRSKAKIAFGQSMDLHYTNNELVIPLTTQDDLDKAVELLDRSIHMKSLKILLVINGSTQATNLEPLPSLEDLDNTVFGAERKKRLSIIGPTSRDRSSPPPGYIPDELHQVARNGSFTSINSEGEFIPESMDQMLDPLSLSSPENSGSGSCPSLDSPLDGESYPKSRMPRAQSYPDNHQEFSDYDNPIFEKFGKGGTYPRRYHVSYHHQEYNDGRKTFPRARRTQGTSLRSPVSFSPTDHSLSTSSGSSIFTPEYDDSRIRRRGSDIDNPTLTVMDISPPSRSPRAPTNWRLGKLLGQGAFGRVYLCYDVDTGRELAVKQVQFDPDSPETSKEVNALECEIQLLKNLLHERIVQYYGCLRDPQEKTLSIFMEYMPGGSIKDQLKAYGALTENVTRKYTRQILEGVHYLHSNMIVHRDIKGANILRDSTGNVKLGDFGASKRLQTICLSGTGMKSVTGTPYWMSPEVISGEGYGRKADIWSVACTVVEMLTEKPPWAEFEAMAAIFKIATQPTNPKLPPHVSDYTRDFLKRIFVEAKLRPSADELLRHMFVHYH

[3] = biological target: T2, Cysteine--tRNA ligase, cytoplasmic (Homo sapiens, UniProt P49589)
T2 sequence (P49589 whole entry): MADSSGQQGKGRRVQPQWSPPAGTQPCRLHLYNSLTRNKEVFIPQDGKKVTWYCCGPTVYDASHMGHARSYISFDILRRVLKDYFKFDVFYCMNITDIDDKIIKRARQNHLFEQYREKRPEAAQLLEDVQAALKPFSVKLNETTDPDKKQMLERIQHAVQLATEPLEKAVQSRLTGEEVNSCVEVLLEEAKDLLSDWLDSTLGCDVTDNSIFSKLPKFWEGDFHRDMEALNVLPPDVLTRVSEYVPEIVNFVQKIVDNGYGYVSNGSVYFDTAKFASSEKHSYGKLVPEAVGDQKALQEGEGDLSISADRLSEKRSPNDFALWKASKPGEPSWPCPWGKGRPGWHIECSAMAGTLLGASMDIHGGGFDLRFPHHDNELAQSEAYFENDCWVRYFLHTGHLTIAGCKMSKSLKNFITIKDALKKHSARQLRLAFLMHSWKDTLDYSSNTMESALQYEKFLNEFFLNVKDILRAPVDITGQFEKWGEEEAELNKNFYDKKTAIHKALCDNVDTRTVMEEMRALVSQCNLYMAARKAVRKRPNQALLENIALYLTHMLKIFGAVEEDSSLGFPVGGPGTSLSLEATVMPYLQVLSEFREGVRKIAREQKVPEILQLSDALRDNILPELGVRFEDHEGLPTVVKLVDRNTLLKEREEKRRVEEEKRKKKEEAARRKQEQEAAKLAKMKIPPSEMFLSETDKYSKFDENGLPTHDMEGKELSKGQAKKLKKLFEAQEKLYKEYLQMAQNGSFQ

ADP/ATP translocase 2 = biological target: T3, ADP/ATP translocase 2 (Homo sapiens, UniProt P05141)
T3 sequence (P05141 whole entry): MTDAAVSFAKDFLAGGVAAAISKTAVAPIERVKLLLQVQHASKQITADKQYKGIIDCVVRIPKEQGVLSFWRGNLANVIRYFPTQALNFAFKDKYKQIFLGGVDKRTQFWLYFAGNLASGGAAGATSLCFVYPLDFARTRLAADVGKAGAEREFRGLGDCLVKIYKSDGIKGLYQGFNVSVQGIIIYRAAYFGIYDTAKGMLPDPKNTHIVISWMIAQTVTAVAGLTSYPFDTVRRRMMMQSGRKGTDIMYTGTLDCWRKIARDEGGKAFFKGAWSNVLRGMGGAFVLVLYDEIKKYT

[4] = biological target: T4, Mitogen-activated protein kinase 15 (Homo sapiens, UniProt Q8TD08)
T4 sequence (Q8TD08 whole entry): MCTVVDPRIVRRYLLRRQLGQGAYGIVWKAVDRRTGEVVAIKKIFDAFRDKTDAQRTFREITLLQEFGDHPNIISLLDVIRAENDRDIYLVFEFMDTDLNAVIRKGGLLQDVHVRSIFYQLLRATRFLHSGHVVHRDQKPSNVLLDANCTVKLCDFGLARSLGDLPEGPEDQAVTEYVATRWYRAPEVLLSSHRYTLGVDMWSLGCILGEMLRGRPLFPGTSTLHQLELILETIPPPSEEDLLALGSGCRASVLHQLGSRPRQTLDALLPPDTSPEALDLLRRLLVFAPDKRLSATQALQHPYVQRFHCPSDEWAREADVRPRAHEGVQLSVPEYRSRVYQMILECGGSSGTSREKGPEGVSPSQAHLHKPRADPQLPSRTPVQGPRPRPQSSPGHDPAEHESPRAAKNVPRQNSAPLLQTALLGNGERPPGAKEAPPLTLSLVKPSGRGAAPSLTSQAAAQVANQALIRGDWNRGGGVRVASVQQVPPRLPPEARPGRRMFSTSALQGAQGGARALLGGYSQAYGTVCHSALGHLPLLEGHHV

Glycine--tRNA ligase = biological target: T5, Glycine--tRNA ligase (Homo sapiens, UniProt P41250)
T5 sequence (P41250 whole entry): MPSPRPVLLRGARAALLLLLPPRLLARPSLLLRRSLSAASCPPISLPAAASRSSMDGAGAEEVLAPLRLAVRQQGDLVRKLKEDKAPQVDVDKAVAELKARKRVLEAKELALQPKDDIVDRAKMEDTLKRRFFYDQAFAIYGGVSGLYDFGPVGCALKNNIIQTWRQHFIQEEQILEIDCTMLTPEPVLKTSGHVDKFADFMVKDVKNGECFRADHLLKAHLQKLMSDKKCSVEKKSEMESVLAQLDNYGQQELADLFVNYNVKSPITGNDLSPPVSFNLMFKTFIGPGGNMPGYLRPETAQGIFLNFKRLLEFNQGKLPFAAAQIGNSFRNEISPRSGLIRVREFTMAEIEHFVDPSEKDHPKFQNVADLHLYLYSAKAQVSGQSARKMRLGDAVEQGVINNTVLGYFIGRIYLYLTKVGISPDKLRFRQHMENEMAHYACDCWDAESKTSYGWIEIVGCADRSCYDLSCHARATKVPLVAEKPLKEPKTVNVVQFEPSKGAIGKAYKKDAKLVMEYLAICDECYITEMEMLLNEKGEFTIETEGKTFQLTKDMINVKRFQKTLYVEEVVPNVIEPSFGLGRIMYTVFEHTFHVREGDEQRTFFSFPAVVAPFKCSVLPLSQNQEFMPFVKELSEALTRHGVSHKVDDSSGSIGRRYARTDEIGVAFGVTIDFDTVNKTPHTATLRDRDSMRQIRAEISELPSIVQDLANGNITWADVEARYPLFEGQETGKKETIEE
Note: in the data inactive means no Kd found up to 30 µM.

Row | Kd [1] | Kd [2] | Kd [3] | Kd (ADP/ATP translocase 2) | Kd (Glycine--tRNA ligase) | Compound | Kd [4]
1 | > 30 µM (inactive) | > 30 µM (inactive) | > 30 µM (inactive) | > 30 µM (inactive) | > 30 µM (inactive) | c1cc(OCCN2CCCCC2)cc(-c2n[nH]c3ccc(-c4nc[nH]n4)cc23)c1 [CC-401] | > 30 µM (inactive)
2 | > 30 µM (inactive) | > 30 µM (inactive) | > 30 µM (inactive) | > 30 µM (inactive) | > 30 µM (inactive) | O=C(NOC[C@H](O)CO)c1ccc(F)c(F)c1Nc1ccc(I)cc1F [MIRDAMETINIB] | > 30 µM (inactive)
3 | > 30 µM (inactive) | > 30 µM (inactive) | > 30 µM (inactive) | > 30 µM (inactive) | > 30 µM (inactive) | CCOc1ccn(-c2ccc(F)cc2)c(=O)c1C(=O)Nc1ccc(Oc2ccnc(N)c2Cl)c(F)c1 [BMS-777607] | > 30 µM (inactive)
4 | > 30 µM (inactive) | > 30 µM (inactive) | > 30 µM (inactive) | > 30 µM (inactive) | > 30 µM (inactive) | C[C@@H]1COC(Nc2ccc3ncnc(Nc4ccc(OCc5nccs5)c(Cl)c4)c3c2)=N1 [VARLITINIB] | > 30 µM (inactive)
5 | > 30 µM (inactive) | > 30 µM (inactive) | > 30 µM (inactive) | > 30 µM (inactive) | > 30 µM (inactive) | COc1cc2nccc(Oc3ccc(NC(=O)C4(C(=O)Nc5ccc(F)cc5)CC4)cc3)c2cc1OC [CABOZANTINIB] | > 30 µM (inactive)
6 | > 30 µM (inactive) | > 30 µM (inactive) | > 30 µM (inactive) | > 30 µM (inactive) | > 30 µM (inactive) | CNC(=O)c1cccc(-c2ccc3c(N4CCOC[C@@H]4C)nc(N4CCOC[C@@H]4C)nc3n2)c1 [VISTUSERTIB] | > 30 µM (inactive)
7 | > 30 µM (inactive) | > 30 µM (inactive) | > 30 µM (inactive) | > 30 µM (inactive) | > 30 µM (inactive) | S=C(NCc1ccc2c(c1)OCO2)N1CCN(c2ncnc3c2oc2ccccc23)CC1 [AMUVATINIB] | > 30 µM (inactive)
8 | > 30 µM (inactive) | > 30 µM (inactive) | > 30 µM (inactive) | > 30 µM (inactive) | > 30 µM (inactive) | COc1ccc(-c2ccc3ncc4c(c3c2)n(-c2ccc(N3CCNCC3)c(C(F)(F)F)c2)c(=O)n4C)cn1 [BGT-226 FREE BASE] | > 30 µM (inactive)
9 | > 30 µM (inactive) | > 30 µM (inactive) | > 30 µM (inactive) | > 30 µM (inactive) | > 30 µM (inactive) | CC(C)(O)CC(=O)NCCn1ccc2ncnc(Nc3ccc(Oc4cccc(C(F)(F)F)c4)c(Cl)c3)c21 [TAK-285] | > 30 µM (inactive)
10 | > 30 µM (inactive) | > 30 µM (inactive) | > 30 µM (inactive) | > 30 µM (inactive) | > 30 µM (inactive) | COc1cc2ncnc3c2cc1OCCCCCN(C)Cc1ccc(Br)cc1N3 [JNJ-26483327] | > 30 µM (inactive)
11 | > 30 µM (inactive) | > 30 µM (inactive) | > 30 µM (inactive) | > 30 µM (inactive) | > 30 µM (inactive) | O=C(Nc1ccc(OC(F)(F)F)cc1)c1sccc1NCc1ccnc2ccccc12 [OSI-930] | > 30 µM (inactive)
12 | > 30 µM (inactive) | > 30 µM (inactive) | > 30 µM (inactive) | > 30 µM (inactive) | > 30 µM (inactive) | CCN(CCCOc1ccc2c(Nc3cc(CC(=O)Nc4cccc(F)c4)n[nH]3)ncnc2c1)CCOP(=O)(O)O [BARASERTIB] | > 30 µM (inactive)
13 | > 30 µM (inactive) | > 30 µM (inactive) | > 30 µM (inactive) | > 30 µM (inactive) | > 30 µM (inactive) | O=C(O)c1ccc2c(c1)nc(Nc1cccc(Cl)c1)c1ccncc12 [SILMITASERTIB] | > 30 µM (inactive)
14 | > 30 µM (inactive) | > 30 µM (inactive) | > 30 µM (inactive) | > 30 µM (inactive) | > 30 µM (inactive) | COc1cc2ncnc(Nc3ccc(F)c(Cl)c3)c2cc1NC(=O)/C=C/CN1CCCCC1 [DACOMITINIB ANHYDROUS] | > 30 µM (inactive)
15 | > 30 µM (inactive) | > 30 µM (inactive) | > 30 µM (inactive) | > 30 µM (inactive) | > 30 µM (inactive) | COc1ccc2c(OCc3nnc4ccc(-c5ccccc5)nn34)ccnc2c1 [AMG-208] | > 30 µM (inactive)
16 | > 30 µM (inactive) | > 30 µM (inactive) | > 30 µM (inactive) | > 30 µM (inactive) | > 30 µM (inactive) | O=C(NC[C@H](O)CO)c1ccncc1Nc1ccc(I)cc1F [PIMASERTIB] | > 30 µM (inactive)

Row | Compound | Kd [1] | Kd [2] | Kd [3] | Kd (ADP/ATP translocase 2) | Kd (Glycine--tRNA ligase) | Kd [4]
17 | O=S(=O)(c1cccc2cnccc12)N1CCCNCC1 [FASUDIL] | > 30 µM (inactive) | > 30 µM (inactive) | > 30 µM (inactive) | > 30 µM (inactive) | > 30 µM (inactive) | > 30 µM (inactive)
18 | C=CC(=O)Nc1cc(Nc2nccc(-c3cn(C)c4ccccc34)n2)c(OC)cc1N(C)CCN(C)C [OSIMERTINIB] | > 30 µM (inactive) | > 30 µM (inactive) | 0.012 µM | > 30 µM (inactive) | > 30 µM (inactive) | > 30 µM (inactive)
19 | Cc1c(Cn2c(C)nc3c(C(=O)O)cc(N4CCOCC4)cc32)cccc1C(F)(F)F [GSK-2636771] | > 30 µM (inactive) | > 30 µM (inactive) | > 30 µM (inactive) | > 30 µM (inactive) | > 30 µM (inactive) | > 30 µM (inactive)
